Columns and labels:
Type in all cases: in vivo
[1] = tested on: velvetleaf (Abutilon theophrasti medicus); test: Test Example 2: herbicidal effect by soil application to upland field; conditions: soil surface spray, upland field soil, 1,000 g active ingredient per hectare, 21st day after application
Summary of the method: (§1)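 Herbicidal activity was graded on a standard scale on day 21 after soil application. The covered, freshly sown pots of field soil received an aqueous wettable-powder spray delivering 1,000 g active ingredient/ha at 1,000 liters/ha and were kept in a greenhouse.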

[2] = tested on: green foxtail (Setaria viridis (L.) P. Beauv.); test: as above; conditions: soil surface spray, upland field soil, 1,000 g active ingredient per hectare, 21st day after application
Summary of the method: as §1

[3] = tested on: barnyardgrass (Echinochloa crus-galli (L.) P. Beauv. var. crus-galli); test: as above; conditions: soil surface spray, upland field soil, 1,000 g active ingredient per hectare, 21st day after application
Summary of the method: as §1

[4] = tested on: slender amaranth (Amaranthus viridis L.); test: as above; conditions: soil surface spray, upland field soil, 1,000 g active ingredient per hectare, 21st day after application
Summary of the method: as §1

[5] = tested on: velvetleaf (Abutilon theophrasti medicus); test: Test Example 3: herbicidal effect by application to upland field (foliage treatment); conditions: foliage treatment, plants grown two weeks, 1,000 g active ingredient per hectare, 14th day after application
Summary of the method: (§2)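 Seeds went into pots of field soil and grew under glass for two weeks. The whole plant was then sprayed from above with diluted wettable powder delivering 1,000 g/ha of active ingredient. Plants stayed in the greenhouse, and injury was graded against a standard 14 days after spraying.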

[6] = tested on: green foxtail (Setaria viridis (L.) P. Beauv.); test: as above; conditions: foliage treatment, plants grown two weeks, 1,000 g active ingredient per hectare, 14th day after application
Summary of the method: as §2

[7] = tested on: barnyardgrass (Echinochloa crus-galli (L.) P. Beauv. var. crus-galli); test: as above; conditions: foliage treatment, plants grown two weeks, 1,000 g active ingredient per hectare, 14th day after application
Summary of the method: as §2

[8] = tested on: slender amaranth (Amaranthus viridis L.); test: as above; conditions: foliage treatment, plants grown two weeks, 1,000 g active ingredient per hectare, 14th day after application
Summary of the method: as §2

[9] = tested on: early watergrass (Echinochloa oryzicola Vasing); test: Test Example 1: herbicidal effect by soil application to paddy field; conditions: paddy field soil application; active ingredient 1,000 g per 1 hectare; wettable powder added dropwise to water surface the day after sowing; examined on the 21st day after application
Summary of the method: (§3)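 Plants were sown in flooded (3 cm) paddy soil and evaluated for herbicidal effect 21 days after soil application in a greenhouse.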

[10] = tested on: Japanese bulrush (Scirpus juncoides Roxb.); test: as above; conditions: paddy field soil application; active ingredient 1,000 g per 1 hectare; wettable powder added dropwise to water surface the day after sowing; examined on the 21st day after application
Summary of the method: as §3

[11] = tested on: heartshape false pickerelweed (Monochoria vaginalis (Burm.f.) C.Presl); test: as above; conditions: paddy field soil application; active ingredient 1,000 g per 1 hectare; wettable powder added dropwise to water surface the day after sowing; examined on the 21st day after application
Summary of the method: as §3

| Compound | herbicidal effect (index), Velvetleaf [1] | herbicidal effect (index), Green Foxtail [2] | herbicidal effect (index), Barnyardgrass [3] | herbicidal effect (index), Slender Amaranth [4] | herbicidal effect (index), Velvetleaf [5] | herbicidal effect (index), Green Foxtail [6] | herbicidal effect (index), Barnyardgrass [7] | herbicidal effect (index), Slender Amaranth [8] | herbicidal effect, Echinochloa oryzicola Vasing [9] | herbicidal effect, Scirpus juncoides Roxb. [10] | herbicidal effect, Monochoria vaginalis (Burm. f.) C. Presl [11] |
| --- | --- | --- | --- | --- | --- | --- | --- | --- | --- | --- | --- |
| O=C1CCCC(O)=C1C(=O)c1ccc(C(F)(F)F)n(-c2ccc(Cl)c(Cl)c2)c1=O [I-98] | 5 (90% or more of herbicidal effect and crop phytotoxicity) | 5 (90% or more of herbicidal effect and crop phytotoxicity) | 5 (90% or more of herbicidal effect and crop phytotoxicity) | 5 (90% or more of herbicidal effect and crop phytotoxicity) | 5 (90% or more of herbicidal effect and crop phytotoxicity) | 5 (90% or more of herbicidal effect and crop phytotoxicity) | 5 (90% or more of herbicidal effect and crop phytotoxicity) | 5 (90% or more of herbicidal effect and crop phytotoxicity) | 5 (90% or more of herbicidal effect and crop phytotoxicity) | 5 (90% or more of herbicidal effect and crop phytotoxicity) | 5 (90% or more of herbicidal effect and crop phytotoxicity) |
| COc1ccc(-n2c(C(F)(F)F)ccc(C(=O)C3=C(O)CCCC3=O)c2=O)c(OC)c1 [I-99] | 5 (90% or more of herbicidal effect and crop phytotoxicity) | 4 (70 to less than 90% of herbicidal effect and crop phytotoxicity) | 5 (90% or more of herbicidal effect and crop phytotoxicity) | 5 (90% or more of herbicidal effect and crop phytotoxicity) | 5 (90% or more of herbicidal effect and crop phytotoxicity) | 4 (70 to less than 90% of herbicidal effect and crop phytotoxicity) | 5 (90% or more of herbicidal effect and crop phytotoxicity) | 5 (90% or more of herbicidal effect and crop phytotoxicity) | 5 (90% or more of herbicidal effect and crop phytotoxicity) | 5 (90% or more of herbicidal effect and crop phytotoxicity) | 5 (90% or more of herbicidal effect and crop phytotoxicity) |
| COc1ccc(-n2c(C(F)(F)F)ccc(C(=O)C3=C(O)CCCC3=O)c2=O)cc1OC [I-100] | 5 (90% or more of herbicidal effect and crop phytotoxicity) | 4 (70 to less than 90% of herbicidal effect and crop phytotoxicity) | 5 (90% or more of herbicidal effect and crop phytotoxicity) | 5 (90% or more of herbicidal effect and crop phytotoxicity) | 5 (90% or more of herbicidal effect and crop phytotoxicity) | 4 (70 to less than 90% of herbicidal effect and crop phytotoxicity) | 5 (90% or more of herbicidal effect and crop phytotoxicity) | 5 (90% or more of herbicidal effect and crop phytotoxicity) | 5 (90% or more of herbicidal effect and crop phytotoxicity) | 5 (90% or more of herbicidal effect and crop phytotoxicity) | 5 (90% or more of herbicidal effect and crop phytotoxicity) |
| COc1cc(OC)cc(-n2c(C(F)(F)F)ccc(C(=O)C3=C(O)CCCC3=O)c2=O)c1 [I-101] | 5 (90% or more of herbicidal effect and crop phytotoxicity) | 5 (90% or more of herbicidal effect and crop phytotoxicity) | 5 (90% or more of herbicidal effect and crop phytotoxicity) | 5 (90% or more of herbicidal effect and crop phytotoxicity) | 5 (90% or more of herbicidal effect and crop phytotoxicity) | 5 (90% or more of herbicidal effect and crop phytotoxicity) | 5 (90% or more of herbicidal effect and crop phytotoxicity) | 5 (90% or more of herbicidal effect and crop phytotoxicity) | 5 (90% or more of herbicidal effect and crop phytotoxicity) | 5 (90% or more of herbicidal effect and crop phytotoxicity) | 5 (90% or more of herbicidal effect and crop phytotoxicity) |
| O=C1CCCC(O)=C1C(=O)c1ccc(C(F)(F)F)n(-c2ccc(F)cc2F)c1=O [I-102] | 5 (90% or more of herbicidal effect and crop phytotoxicity) | 5 (90% or more of herbicidal effect and crop phytotoxicity) | 5 (90% or more of herbicidal effect and crop phytotoxicity) | 5 (90% or more of herbicidal effect and crop phytotoxicity) | 5 (90% or more of herbicidal effect and crop phytotoxicity) | 5 (90% or more of herbicidal effect and crop phytotoxicity) | 5 (90% or more of herbicidal effect and crop phytotoxicity) | 5 (90% or more of herbicidal effect and crop phytotoxicity) | 5 (90% or more of herbicidal effect and crop phytotoxicity) | 5 (90% or more of herbicidal effect and crop phytotoxicity) | 5 (90% or more of herbicidal effect and crop phytotoxicity) |
| O=C1CCCC(O)=C1C(=O)c1ccc(C(F)(F)F)n(-c2cc(F)ccc2F)c1=O [I-103] | 5 (90% or more of herbicidal effect and crop phytotoxicity) | 5 (90% or more of herbicidal effect and crop phytotoxicity) | 5 (90% or more of herbicidal effect and crop phytotoxicity) | 5 (90% or more of herbicidal effect and crop phytotoxicity) | 5 (90% or more of herbicidal effect and crop phytotoxicity) | 5 (90% or more of herbicidal effect and crop phytotoxicity) | 5 (90% or more of herbicidal effect and crop phytotoxicity) | 5 (90% or more of herbicidal effect and crop phytotoxicity) | 5 (90% or more of herbicidal effect and crop phytotoxicity) | 5 (90% or more of herbicidal effect and crop phytotoxicity) | 5 (90% or more of herbicidal effect and crop phytotoxicity) |
| O=C1CCCC(O)=C1C(=O)c1ccc(C(F)(F)F)n(-c2ccc(F)c(F)c2)c1=O [I-105] | 5 (90% or more of herbicidal effect and crop phytotoxicity) | 5 (90% or more of herbicidal effect and crop phytotoxicity) | 5 (90% or more of herbicidal effect and crop phytotoxicity) | 5 (90% or more of herbicidal effect and crop phytotoxicity) | 5 (90% or more of herbicidal effect and crop phytotoxicity) | 5 (90% or more of herbicidal effect and crop phytotoxicity) | 5 (90% or more of herbicidal effect and crop phytotoxicity) | 5 (90% or more of herbicidal effect and crop phytotoxicity) | 5 (90% or more of herbicidal effect and crop phytotoxicity) | 5 (90% or more of herbicidal effect and crop phytotoxicity) | 5 (90% or more of herbicidal effect and crop phytotoxicity) |
| O=C1CCCC(O)=C1C(=O)c1ccc(C(F)(F)F)n(-c2cc(F)cc(F)c2)c1=O [I-106] | 5 (90% or more of herbicidal effect and crop phytotoxicity) | 5 (90% or more of herbicidal effect and crop phytotoxicity) | 5 (90% or more of herbicidal effect and crop phytotoxicity) | 5 (90% or more of herbicidal effect and crop phytotoxicity) | 5 (90% or more of herbicidal effect and crop phytotoxicity) | 5 (90% or more of herbicidal effect and crop phytotoxicity) | 5 (90% or more of herbicidal effect and crop phytotoxicity) | 5 (90% or more of herbicidal effect and crop phytotoxicity) | 5 (90% or more of herbicidal effect and crop phytotoxicity) | 5 (90% or more of herbicidal effect and crop phytotoxicity) | 5 (90% or more of herbicidal effect and crop phytotoxicity) |

— patent publication US8076487B2, “Pyridone derivative and herbicide” (Kumiai Chemical Industry Co., Ltd., priority 2006, dated 2011)
